This experiment has as its system L1210 leukemia ip in BDF1 mice, survival T/C. Put plainly: NCI In Vivo Anticancer Drug Screen. Data for tumor model L1210 Leukemia (intraperitoneal) in B6D2F1 (BDF1) mice. The conditions noted are these: endpoint: mean survival time, higher = longer survival. Summed up: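 Transplantable tumor model; survival measured in treated vs vehicle control mice. Value = treated/control.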

Where [1] appears, read: dose: 100.0 mg/kg/injection, schedule: Q01DX009 (ip), vehicle: saline with Tween-80.
Setting [2] is: dose: 100.0 mg/kg/injection, schedule: Q04DX003 (ip), vehicle: Klucel (hydroxypropylcellulose) (HPC).
Where [3] appears, read: dose: 200.0 mg/kg/injection, schedule: Q01DX009 (ip), vehicle: saline with Tween-80.
The mark [4] stands for this setting: dose: 200.0 mg/kg/injection, schedule: Q04DX003 (ip), vehicle: Klucel (hydroxypropylcellulose) (HPC).
Setting [5] is: dose: 400.0 mg/kg/injection, schedule: Q01DX009 (ip), vehicle: saline with Tween-80.
The mark [6] stands for this setting: dose: 400.0 mg/kg/injection, schedule: Q04DX003 (ip), vehicle: Klucel (hydroxypropylcellulose) (HPC).
Setting [7] is: dose: 100.0 mg/kg/injection, schedule: Q04DX002 (ip), vehicle: Klucel (hydroxypropylcellulose) (HPC).
[8] abbreviates: dose: 200.0 mg/kg/injection, schedule: Q04DX002 (ip), vehicle: Klucel (hydroxypropylcellulose) (HPC).
The mark [9] stands for this setting: dose: 100.0 mg/kg/injection, schedule: Q01DX001 (ip), vehicle: saline.
Where [10] appears, read: dose: 200.0 mg/kg/injection, schedule: Q01DX001 (ip), vehicle: saline.
The mark [11] stands for this setting: dose: 400.0 mg/kg/injection, schedule: Q01DX001 (ip), vehicle: saline.
[12] abbreviates: dose: 100.0 mg/kg/injection, schedule: Q01DX009 (ip), vehicle: Klucel (hydroxypropylcellulose) (HPC).
Setting [13] is: dose: 200.0 mg/kg/injection, schedule: Q01DX009 (ip), vehicle: Klucel (hydroxypropylcellulose) (HPC).
[14] abbreviates: dose: 400.0 mg/kg/injection, schedule: Q01DX009 (ip), vehicle: Klucel (hydroxypropylcellulose) (HPC).
Where [15] appears, read: dose: 100.0 mg/kg/injection, schedule: Q04DX002 (ip), vehicle: saline.
[16] abbreviates: dose: 200.0 mg/kg/injection, schedule: Q04DX002 (ip), vehicle: saline.
Where [17] appears, read: dose: 25.0 mg/kg/injection, schedule: Q01DX009 (ip), vehicle: Klucel (hydroxypropylcellulose) (HPC).

Where “and” joins values, the source holds several entries; their conditions need not be identical. Equal entries are not always repeated. Toxic doses and inconclusive results are not listed.

These results are taken from PubChem BioAssay AID248 (DTP/NCI, 2004).

On to `CC(=S)Oc1cccc(C)c1`, for which the T/C runs as follows: (dose: 50.0 mg/kg/injection, schedule: Q01DX001 (ip), vehicle: carboxymethylcellulose (CMC)) 102 % of control; (dose: 100.0 mg/kg/injection, schedule: Q01DX001 (ip), vehicle: carboxymethylcellulose (CMC)) 98 % of control; (dose: 200.0 mg/kg/injection, schedule: Q01DX001 (ip), vehicle: carboxymethylcellulose (CMC)) 96 % of control; (dose: 400.0 mg/kg/injection, schedule: Q01DX001 (ip), vehicle: carboxymethylcellulose (CMC)) 104 % of control.

Consider `Cc1cc(C)c(CCc2cc(C)c(C)cc2C)cc1C`, for which the T/C runs as follows: under setting [1], 93 % of control; under setting [2], 104 % of control; under setting [3], 92 % of control; under setting [4], 93 % of control; under setting [5], 87 % of control; under setting [6], 109 % of control.

With `O=C(Nc1cccc2ccccc12)c1cccc([N+](=O)[O-])c1C(=O)O`, the T/C is 99 % of control under setting [7]; 92 % of control under setting [8]; 96 % of control (dose: 400.0 mg/kg/injection, schedule: Q04DX002 (ip), vehicle: Klucel (hydroxypropylcellulose) (HPC)).

On to `S=C=Nc1cccc2c(N=C=S)cccc12`, for which the T/C by setting is: (dose: 50.0 mg/kg/injection, schedule: Q01DX001 (ip), vehicle: saline) 98 % of control; under setting [9], 98 % of control; under setting [10], 110 % of control; under setting [11], 119 % of control.

With `CCOC(=O)C1=C(O)c2ccccc2C1c1ccccc1` (stereo unspecified), the T/C under setting [12] is 93 % of control, the T/C under setting [13] was 91 % of control and the T/C under setting [14] is 93 % of control.

As to `CC(O)COc1ccc(OCc2ccccc2)cc1` (stereo unspecified), the T/C under setting [12] was 98 % of control; the T/C under setting [2] is 106 % of control; the T/C under setting [13] is 95 % of control; the T/C under setting [4] is 100 % of control; the T/C under setting [14] is 97 % of control; the T/C under setting [6] was 92 % of control.

For `CC[Si](Cl)(CC)c1ccccc1`, the T/C is 93 % of control under setting [9]; 107 % of control (dose: 100.0 mg/kg/injection, schedule: Q01DX001 (sc), vehicle: olive oil, sesame oil, peanut oil); 90 % of control under setting [10]; 107 % of control (dose: 200.0 mg/kg/injection, schedule: Q01DX001 (sc), vehicle: olive oil, sesame oil, peanut oil); 195 % of control under setting [11]; 102 % of control (dose: 400.0 mg/kg/injection, schedule: Q01DX001 (sc), vehicle: olive oil, sesame oil, peanut oil).

For `NCCOc1ccccn1`, the T/C was 111 % of control under setting [15]; 101 % of control under setting [16]; 101 % of control (dose: 400.0 mg/kg/injection, schedule: Q04DX002 (ip), vehicle: saline).

Turning to `COc1ccc(Cc2ccc(O)cc2)cc1`, the T/C is, setting by setting: (dose: 100.0 mg/kg/injection, schedule: Q04DX003 (ip), vehicle: other) 90 % of control; (dose: 200.0 mg/kg/injection, schedule: Q04DX003 (ip), vehicle: other) 93 % of control; (dose: 400.0 mg/kg/injection, schedule: Q04DX003 (ip), vehicle: other) 98 % of control.

Take `Cc1ccc(/C(C#N)=C/C2CCC(N(C)C)CC2)cc1` (stereo unspecified): the T/C is 87 % of control (dose: 100.0 mg/kg/injection, schedule: Q04DX002 (ip), vehicle: saline with Tween-80); 93 % of control (dose: 200.0 mg/kg/injection, schedule: Q04DX002 (ip), vehicle: saline with Tween-80); 87 % of control (dose: 400.0 mg/kg/injection, schedule: Q04DX002 (ip), vehicle: saline with Tween-80).

`COc1ccc(-n2c(=O)c(N=Nc3ccccc3C)c(O)n(-c3ccccc3C)c2=S)cc1`: the T/C by setting is: (dose: 37.5 mg/kg/injection, schedule: Q01DX001 (ip), vehicle: Klucel (hydroxypropylcellulose) (HPC)) 100 % of control; (dose: 75.0 mg/kg/injection, schedule: Q01DX001 (ip), vehicle: Klucel (hydroxypropylcellulose) (HPC)) 97 % of control; (dose: 150.0 mg/kg/injection, schedule: Q01DX001 (ip), vehicle: Klucel (hydroxypropylcellulose) (HPC)) 100 % of control.

Regarding `NC(Cc1ccc(OCc2ccccc2)cc1)C(=O)O` (stereo unspecified), the T/C was 92 % of control (dose: 100.0 mg/kg/injection, schedule: Q01DX001 (ip), vehicle: saline with Tween-80); 95 % of control under setting [1]; 89 % of control (dose: 200.0 mg/kg/injection, schedule: Q01DX001 (ip), vehicle: saline with Tween-80); 90 % of control under setting [3]; 89 % of control (dose: 400.0 mg/kg/injection, schedule: Q01DX001 (ip), vehicle: saline with Tween-80); 96 % of control under setting [5].

Regarding `O=C(COc1ccc(Cl)cc1Cl)Nc1ccc(-c2ccc(NC(=O)COc3ccc(Cl)cc3Cl)cc2)cc1`, the T/C by setting is: (dose: 50.0 mg/kg/injection, schedule: Q04DX002 (ip), vehicle: Klucel (hydroxypropylcellulose) (HPC)) 89 % of control; under setting [7], 89 % of control; under setting [8], 100 % of control.

As to `C=CCNCC(O)c1ccccc1` (stereo unspecified), the T/C under setting [17] is 90 % of control; the T/C (dose: 50.0 mg/kg/injection, schedule: Q01DX009 (ip), vehicle: Klucel (hydroxypropylcellulose) (HPC)) was 95 % of control; the T/C under setting [12] was 95 % of control and 103 % of control; the T/C under setting [2] was 95 % of control; the T/C under setting [4] is 101 % of control; the T/C under setting [6] is 95 % of control.

On to `CN(C)c1ccc(/C=C/c2ccc3ccccc3[n+]2C)cc1`, for which the T/C was 103 % of control (dose: 1.5 mg/kg/injection, schedule: Q01DX009 (ip), vehicle: Klucel (hydroxypropylcellulose) (HPC)); 97 % of control (dose: 3.0 mg/kg/injection, schedule: Q01DX009 (ip), vehicle: Klucel (hydroxypropylcellulose) (HPC)); 100 % of control (dose: 3.12 mg/kg/injection, schedule: Q01DX009 (ip), vehicle: Klucel (hydroxypropylcellulose) (HPC)); 107 % of control (dose: 6.0 mg/kg/injection, schedule: Q04DX003 (ip), vehicle: Klucel (hydroxypropylcellulose) (HPC)); 104 % of control (dose: 6.25 mg/kg/injection, schedule: Q01DX009 (ip), vehicle: Klucel (hydroxypropylcellulose) (HPC)); 107 % of control (dose: 12.0 mg/kg/injection, schedule: Q04DX003 (ip), vehicle: Klucel (hydroxypropylcellulose) (HPC)). The T/C is 107 % of control (dose: 12.5 mg/kg/injection, schedule: Q01DX009 (ip), vehicle: Klucel (hydroxypropylcellulose) (HPC)); 96 % of control under setting [17]; 86 % of control (dose: 25.0 mg/kg/injection, schedule: Q04DX003 (ip), vehicle: Klucel (hydroxypropylcellulose) (HPC)); 112 % of control under setting [9]; 121 % of control under setting [10].

`CC(C)(CCCO)c1ccccc1`: the T/C (dose: 50.0 mg/kg/injection, schedule: Q01DX009 (ip), vehicle: saline with Tween-80) was 96 % of control and the T/C under setting [1] was 104 % of control.

With `Cc1ccc(C(=O)CCN2CCOCC2)c(C)c1`, the T/C under setting [9] is 102 % of control, the T/C under setting [10] is 96 % of control and the T/C under setting [11] is 96 % of control.

For `C[n+]1ccccc1Cl`, the T/C was 115 % of control (dose: 50.0 mg/kg/injection, schedule: Q04DX002 (ip), vehicle: saline); 108 % of control under setting [15]; 110 % of control under setting [16].

Take `Cn1c(=O)c2c(ncn2CCOC(=O)C(C)(C)Oc2ccc(Cl)cc2)n(C)c1=O`: the T/C under setting [12] is 92 % of control; the T/C under setting [2] was 90 % of control; the T/C under setting [13] is 105 % of control; the T/C under setting [4] is 96 % of control; the T/C under setting [6] was 93 % of control.

As for `CC12CCC(O)CC1CCC1C3CC/C(=C\c4ccco4)C(=O)C3CCC12` (stereo unspecified), the T/C reads like this: (dose: 50.0 mg/kg/injection, schedule: Q01DX001 (sc), vehicle: steriod suspending solution) 105 % of control; (dose: 100.0 mg/kg/injection, schedule: Q01DX001 (sc), vehicle: steriod suspending solution) 89 % of control; (dose: 200.0 mg/kg/injection, schedule: Q01DX001 (sc), vehicle: steriod suspending solution) 91 % of control.
